Measurements taken from patent US20110105420A1, “AMINOSUGAR COMPOUND AND PROCESS FOR PRODUCTION THEREOF” (Astellas Pharma Inc., priority 2008, published 2011).

Key:
[1] = Solubility (physicochemical properties)
[2] = molecular target: T1, rat pancreatic α-amylase (Rattus norvegicus, UniProt P00689); assay: α-amylase inhibitory activity (starch-iodine absorbance); format: biochemical; details: read-out: inhibitory activity (IC50 value) against the rat pancreatic α-amylase; SD rat pancreas enzyme, starch substrate, 37° C., pH=7.0
T1 construct: The solutions of pancreatic α-amylases of mouse, rat, dog and monkey were prepared from the pancreases; from tissue; host or cells: pancreas of SD rat (male, 8 weeks old, Charles River Laboratories Japan)
T1 sequence (P00689 16-508): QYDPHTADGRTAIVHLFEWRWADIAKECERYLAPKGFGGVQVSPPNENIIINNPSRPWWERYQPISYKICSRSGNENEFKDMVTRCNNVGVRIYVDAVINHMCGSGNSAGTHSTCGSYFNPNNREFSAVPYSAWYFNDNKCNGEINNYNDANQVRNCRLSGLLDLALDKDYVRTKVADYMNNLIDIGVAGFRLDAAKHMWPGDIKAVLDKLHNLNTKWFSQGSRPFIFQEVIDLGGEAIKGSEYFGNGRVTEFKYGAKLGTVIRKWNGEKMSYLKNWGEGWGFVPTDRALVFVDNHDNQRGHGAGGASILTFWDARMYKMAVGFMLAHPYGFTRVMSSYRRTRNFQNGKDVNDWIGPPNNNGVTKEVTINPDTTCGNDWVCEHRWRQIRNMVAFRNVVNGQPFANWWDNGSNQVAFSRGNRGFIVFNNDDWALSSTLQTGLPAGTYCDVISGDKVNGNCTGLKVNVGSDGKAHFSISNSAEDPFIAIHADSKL
Experimental: (§1) The solutions of pancreatic α-amylases of mouse, rat, dog and monkey were prepared from the pancreases of an ICR mouse (male, 8 weeks old, purchased from SLC Japan, Inc.), an SD rat (male, 8 weeks old, purchased from Charles River Laboratories Japan, Inc.), a beagle dog (male, 35 months old, purchased from Narc Corp.), and a cynomolgus monkey (male, 10 years old, purchased from CLEA Japan, Inc.). The solutions of α-amylases from human saliva and pancreas were prepared from the enzymes purchased from Sigma-Aldrich Co. These α-amylase solutions were all diluted to 800 U/mL using an assay buffer (48 mM NaCl, 5.4 mM KCl, 28 mM Na2HPO4, 43 mM NaH2PO4, 35 mM mannitol, pH=7.0). The various α-amylase solutions (20 U, 25 μL) and the compounds dissolved in the assay buffer (25 μL) were added to a 96-well microplate, and the microplate was incubated at 37° C. for 10 minutes. Subsequently, a starch solution (5 mg/mL, 50 μL) was added thereto, and the microplate was incubated at 37° C. for 10 minutes. A 0.33 M perchloric acid solution (50 μL) was added to the microplate to terminate the enzymatic reaction, and then a 0.01 M iodine solution (50 μL) was added thereto to color the solutions. The absorbance (660 nm) of each of the solutions was measured. The concentration of the compound inhibiting 50% of the α-amylase activity was calculated as the IC50 value.

[3] = molecular target: T2, human saliva α-amylase (Homo sapiens, UniProt P0DUB6); assay: as above; format: biochemical; details: enzyme from Sigma-Aldrich, starch substrate, 37° C., pH=7.0; read-out: inhibitory activity (IC50 value) against the human saliva α-amylase
T2 construct: The solutions of α-amylases from human saliva and pancreas were prepared from the enzymes purchased from Sigma-Aldrich Co; purchased Sigma-Aldrich Co; host or cells: human saliva
T2 sequence (P0DUB6 16-511): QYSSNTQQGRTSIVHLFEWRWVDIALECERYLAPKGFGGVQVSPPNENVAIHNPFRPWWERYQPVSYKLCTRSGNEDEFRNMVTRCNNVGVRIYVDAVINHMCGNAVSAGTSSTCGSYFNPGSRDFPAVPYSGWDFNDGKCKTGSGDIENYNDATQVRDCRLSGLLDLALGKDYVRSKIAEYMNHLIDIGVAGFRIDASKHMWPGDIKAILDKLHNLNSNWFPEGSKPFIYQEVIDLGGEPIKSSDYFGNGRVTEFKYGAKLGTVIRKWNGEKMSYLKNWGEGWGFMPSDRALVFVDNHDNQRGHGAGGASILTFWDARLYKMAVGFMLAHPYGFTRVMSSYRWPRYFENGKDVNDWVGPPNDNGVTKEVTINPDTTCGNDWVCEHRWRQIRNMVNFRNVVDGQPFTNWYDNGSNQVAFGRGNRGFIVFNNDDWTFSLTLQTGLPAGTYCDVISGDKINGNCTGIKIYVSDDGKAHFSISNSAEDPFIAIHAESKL
Experimental: as §1

[4] = molecular target: T3, human pancreatic α-amylase (Homo sapiens, UniProt P04746); assay: as above; format: biochemical; details: enzyme from Sigma-Aldrich, starch substrate, 37° C., pH=7.0; read-out: inhibitory activity (IC50 value) against the human pancreatic α-amylase
T3 construct: The solutions of α-amylases from human saliva and pancreas were prepared from the enzymes purchased from Sigma-Aldrich Co; purchased Sigma-Aldrich Co; host or cells: human pancreas
T3 sequence (P04746 16-511): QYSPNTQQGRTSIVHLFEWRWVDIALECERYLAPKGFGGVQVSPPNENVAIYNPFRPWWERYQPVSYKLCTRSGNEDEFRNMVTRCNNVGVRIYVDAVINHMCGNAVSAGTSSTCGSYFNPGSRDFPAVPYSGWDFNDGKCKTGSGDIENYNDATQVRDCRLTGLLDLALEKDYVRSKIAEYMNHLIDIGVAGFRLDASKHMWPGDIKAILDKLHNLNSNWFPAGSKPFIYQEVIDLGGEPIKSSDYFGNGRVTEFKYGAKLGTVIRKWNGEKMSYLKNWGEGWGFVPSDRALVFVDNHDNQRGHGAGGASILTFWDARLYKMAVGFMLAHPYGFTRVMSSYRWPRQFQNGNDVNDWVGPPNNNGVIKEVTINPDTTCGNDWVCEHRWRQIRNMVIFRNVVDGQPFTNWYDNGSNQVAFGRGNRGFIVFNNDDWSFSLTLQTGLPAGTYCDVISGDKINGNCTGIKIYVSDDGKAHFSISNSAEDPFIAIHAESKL
Experimental: as §1

[5] = molecular target: monkey pancreatic α-amylase; assay: as above; format: biochemical; details: cynomolgus monkey pancreas enzyme, starch substrate, 37° C., pH=7.0; read-out: inhibitory activity (IC50 value) against the monkey pancreatic α-amylase
Experimental: as §1

[6] = molecular target: dog pancreatic α-amylase; assay: as above; format: biochemical; details: beagle dog pancreas enzyme, starch substrate, 37° C., pH=7.0; read-out: inhibitory activity (IC50 value) against the dog pancreatic α-amylase
Experimental: as §1

[7] = molecular target: T4, mouse pancreatic α-amylase (Mus musculus, UniProt P00688); assay: as above; format: biochemical; details: read-out: inhibitory activity (IC50 value) against the mouse pancreatic α-amylase; ICR mouse pancreas enzyme, starch substrate, 37° C., pH=7.0
T4 construct: prepared from the pancreases of an ICR mouse; from tissue; host or cells: pancreas of ICR mouse (male, 8 weeks old, SLC Japan)
T4 sequence (P00688 16-508): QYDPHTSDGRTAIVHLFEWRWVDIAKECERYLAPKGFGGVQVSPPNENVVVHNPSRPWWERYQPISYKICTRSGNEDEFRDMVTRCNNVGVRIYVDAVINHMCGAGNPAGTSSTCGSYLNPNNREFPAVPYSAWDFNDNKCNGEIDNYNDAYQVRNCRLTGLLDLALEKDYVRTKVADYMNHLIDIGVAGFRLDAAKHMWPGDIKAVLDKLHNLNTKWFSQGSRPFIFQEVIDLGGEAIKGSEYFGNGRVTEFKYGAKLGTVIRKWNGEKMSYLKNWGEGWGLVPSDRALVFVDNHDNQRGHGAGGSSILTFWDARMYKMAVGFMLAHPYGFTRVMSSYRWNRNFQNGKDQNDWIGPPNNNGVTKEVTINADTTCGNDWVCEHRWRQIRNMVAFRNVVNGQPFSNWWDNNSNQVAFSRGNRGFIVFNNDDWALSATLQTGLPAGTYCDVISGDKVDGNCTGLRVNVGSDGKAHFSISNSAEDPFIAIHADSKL
Experimental: as §1

[8] = test system: Male ICR (normal) mice; assay: oral activity under a load of carbohydrates (blood glucose and plasma insulin); format: in vivo, mouse
Experimental: Male ICR (normal) mice (6 weeks old, purchased from SLC Japan, Inc.) were used for the animal. The compound was prepared into a solution using a 0.5% methylcellulose solution. Blood was collected from a mouse which had been fasted overnight, for the measurement of the blood glucose level and the blood plasma insulin level, and the mouse was orally administered with a solvent or the compound A (0.3, 1, 3, 10 mg/kg), immediately followed by oral administration of a carbohydrate solution (75 mg/mL starch, 25 mg/mL sucrose, 20 mL/kg). Subsequently, blood was collected 0.25, 0.5 and 1 hour after the oral administration, for the measurement of the blood plasma insulin level, and blood was collected 0.5, 1 and 2 hours after the oral administration, for the measurement of the blood glucose level.
The blood glucose level was measured by using Glucose CH-test Wako reagent (Wako Pure Chemical Industry, Ltd.), and the blood plasma insulin concentration was measured by using a Mouse Insulin ELISA Kit (Shibayagi Co., Ltd.). The test results are indicated in the average ±standard error.
The area-under-curve (AUC) of the blood glucose level-time curve was calculated from the blood glucose level for the time period up to 2 hours from the administration of the compound, and the AUC of the plasma insulin level-time curve was calculated from the blood plasma insulin level for the time period up to 1 hour from the administration of the compound. A statistical analysis was performed between the solvent-administered group and the compound A-administered group by using Dunnett's multiple range test, and a critical rate of less than 5% was defined as significant.

SMILES | Solubility in acetone, MeOH, EtOH and MeCN [1] | Solubility in water, DMF and DMSO [1] | IC50 [2] [nM] | IC50 [3] [nM] | IC50 [4] [nM] | IC50 [5] [nM] | IC50 [6] [nM] | IC50 [7] [nM] | blood glucose elevation suppressive action ([8]; oral administration 0.3 to 10 mg/kg, fasted ICR mice, carbohydrate load (starch + sucrose), glucose up to 2 hours, FIG. 7) | plasma insulin level lowering action ([8]; oral administration 0.3 to 10 mg/kg, fasted ICR mice, carbohydrate load, insulin up to 1 hour, FIG. 8) | dose at which the blood glucose elevation suppressive action was significant ([8]; oral, ICR mice, carbohydrate load, Dunnett's test vs solvent group) [mg/kg]
CC1OC(OC2C(CO)OC(OC3C(CO)=CC(NC4C(C)OC(OC5C(CO)OC(OC6C(CO)=CC(NC7C(C)OC(OC8C(CO)OC(OC9C(CO)=CC(NC%10C(C)OC(OC%11C(CO)OC(OC%12C(CO)=CC(NC%13C(C)OC(OC%14C(CO)OC(OC%15C(CO)OC(OC%16C(CO)OC(OC%17OC(CO)C(O)C(O)C%17O)C(O)C%16O)C(O)C%15O)C(O)C%14O)C(O)C%13O)C(O)C%12O)C(O)C%11O)C(O)C%10O)C(O)C9O)C(O)C8O)C(O)C7O)C(O)C6O)C(O)C5O)C(O)C4O)C(O)C3O)C(O)C2O)C(O)C(O)C1NC1C=C(CO)C(O)C(O)C1O (stereo not drawn) [compound B] | slightly soluble | highly soluble | 2.12 | 1.87 | 2.11 | 1.9 | 2.38 | 2.06 |  |  | 
CC1OC(OC2C(CO)OC(OC3C(CO)=CC(NC4C(C)OC(OC5C(CO)OC(OC6C(CO)=CC(NC7C(C)OC(OC8C(CO)OC(OC9C(CO)=CC(NC%10C(C)OC(OC%11C(CO)OC(OC%12C(CO)=CC(NC%13C(C)OC(OC%14C(CO)OC(OC%15C(CO)=CC(NC%16C(C)OC(OC%17C(CO)OC(OC%18C(CO)OC(OC%19C(CO)OC(OC%20OC(CO)C(O)C(O)C%20O)C(O)C%19O)C(O)C%18O)C(O)C%17O)C(O)C%16O)C(O)C%15O)C(O)C%14O)C(O)C%13O)C(O)C%12O)C(O)C%11O)C(O)C%10O)C(O)C9O)C(O)C8O)C(O)C7O)C(O)C6O)C(O)C5O)C(O)C4O)C(O)C3O)C(O)C2O)C(O)C(O)C1NC1C=C(CO)C(O)C(O)C1O (stereo not drawn) [compound C] | slightly soluble | highly soluble | 1.95 | 1.99 | 2.21 | 2.02 | 2.07 | 1.73 |  |  | 
CC1OC(OC2C(CO)OC(OC3C(CO)=CC(NC4C(C)OC(OC5C(CO)OC(OC6C(CO)=CC(NC7C(C)OC(OC8C(CO)OC(OC9C(CO)=CC(NC%10C(C)OC(OC%11C(CO)OC(OC%12C(CO)OC(OC%13C(CO)OC(OC%14OC(CO)C(O)C(O)C%14O)C(O)C%13O)C(O)C%12O)C(O)C%11O)C(O)C%10O)C(O)C9O)C(O)C8O)C(O)C7O)C(O)C6O)C(O)C5O)C(O)C4O)C(O)C3O)C(O)C2O)C(O)C(O)C1NC1C=C(CO)C(O)C(O)C1O (stereo not drawn) [compound A] | slightly soluble | highly soluble | 2.01 | 2.2 | 2.02 | 2.14 | 2.06 | 1.9 | dose-dependent blood glucose elevation suppressive action was recognized | dose-dependent, significant plasma insulin level lowering action was also recognized | ≥ 1
